In PubChem BioAssay AID330 (DTP/NCI, 2004):
Several values for one entry are separate records, joined by “and”; a condition that tells them apart may be missing. Identical values can stand only once. Inconclusive results and toxic doses are left out. The calls were made as follows: active = survival T/C of 150% or more; inactive = T/C below 125% in these data.

System: P388 leukemia ip, CD2F1 mice, survival T/C
Assay: NCI In Vivo Anticancer Drug Screen. Data for tumor model P388 Leukemia (intraperitoneal) in CD2F1 (CDF1) mice
Conditions: endpoint: median survival time, higher = longer survival
Summary of the method: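 Mice carrying the transplanted tumor received test compound or vehicle. Survival was recorded in each group, and the value is the treated-group measurement divided by that of the vehicle-treated control group.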

[1] = dose: 50.0 mg/kg/injection, schedule: Q01DX005 (ip), vehicle: saline with Tween-80
[2] = dose: 25.0 mg/kg/injection, schedule: Q01DX009 (ip), vehicle: saline with Tween-80
[3] = dose: 50.0 mg/kg/injection, schedule: Q01DX009 (ip), vehicle: saline with Tween-80
[4] = dose: 100.0 mg/kg/injection, schedule: Q01DX009 (ip), vehicle: saline with Tween-80
[5] = dose: 12.5 mg/kg/injection, schedule: Q01DX009 (ip), vehicle: saline with Tween-80
[6] = dose: 60.0 mg/kg/injection, schedule: Q01DX005 (ip), vehicle: saline with Tween-80
[7] = dose: 120.0 mg/kg/injection, schedule: Q01DX005 (ip), vehicle: saline with Tween-80
[8] = dose: 240.0 mg/kg/injection, schedule: Q01DX005 (ip), vehicle: saline with Tween-80
[9] = dose: 50.0 mg/kg/injection, schedule: Q01DX005 (ip), vehicle: saline
[10] = dose: 50.0 mg/kg/injection, schedule: Q01DX009 (ip), vehicle: saline
[11] = dose: 100.0 mg/kg/injection, schedule: Q01DX005 (ip), vehicle: saline
[12] = dose: 50.0 mg/kg/injection, schedule: Q01DX009 (ip), vehicle: Klucel (hydroxypropylcellulose) (HPC)
[13] = dose: 100.0 mg/kg/injection, schedule: Q01DX009 (ip), vehicle: Klucel (hydroxypropylcellulose) (HPC)
[14] = dose: 200.0 mg/kg/injection, schedule: Q01DX009 (ip), vehicle: Klucel (hydroxypropylcellulose) (HPC)
[15] = dose: 6.25 mg/kg/injection, schedule: Q01DX005 (ip), vehicle: Klucel (hydroxypropylcellulose) (HPC)
[16] = dose: 25.0 mg/kg/injection, schedule: Q01DX005 (ip), vehicle: Klucel (hydroxypropylcellulose) (HPC)
[17] = dose: 100.0 mg/kg/injection, schedule: Q01DX009 (ip), vehicle: saline
[18] = dose: 200.0 mg/kg/injection, schedule: Q01DX009 (ip), vehicle: saline
[19] = dose: 100.0 mg/kg/injection, schedule: Q01DX005 (ip), vehicle: saline with Tween-80

Measured: T/C

COc1cc2c(cc1OCc1ccccc1)C(Cc1cc(Br)sc1Br)N(C(C)=O)CC2 (stereo unspecified)
inactive: dose: 63.0 mg/kg/injection, schedule: Q01DX001 (ip), vehicle: Klucel (hydroxypropylcellulose) (HPC) 97 % of control | dose: 126.0 mg/kg/injection, schedule: Q01DX001 (ip), vehicle: Klucel (hydroxypropylcellulose) (HPC) 101 % of control | dose: 252.0 mg/kg/injection, schedule: Q01DX001 (ip), vehicle: Klucel (hydroxypropylcellulose) (HPC) 109 % of control

CCOc1ccc2nc3cc(N=Nc4ccc(N)nc4N)ccc3c(N)c2c1
inactive: dose: 12.5 mg/kg/injection, schedule: Q01DX005 (ip), vehicle: saline with Tween-80 106 % of control | dose: 25.0 mg/kg/injection, schedule: Q01DX005 (ip), vehicle: saline with Tween-80 113 % of control | [1] 104 % of control and 105 % of control

O=c1[nH]cc(S)c(=O)[nH]1
inactive: [2] 105 % of control | [3] 100 % of control | dose: 50.0 mg/kg/injection, schedule: Q04DX003 (ip), vehicle: saline with Tween-80 100 % of control | [4] 110 % of control | dose: 100.0 mg/kg/injection, schedule: Q04DX003 (ip), vehicle: saline with Tween-80 100 % of control

Cc1cnc2c(N)cc(C)c(C)c2c1
inactive: [5] 94 % of control | [2] 100 % of control | [3] 99 % of control and 100 % of control | [4] 86 % of control

O=C(O)C(OC(=O)C(F)(F)F)C(F)(F)C(F)(F)C(F)(F)F (stereo unspecified)
inactive: [6] 95 % of control | [7] 89 % of control | [8] 99 % of control

CC1=NCC(C)c2ccccc21 (stereo unspecified)
inactive: dose: 6.25 mg/kg/injection, schedule: Q01DX009 (ip), vehicle: saline with Tween-80 96 % of control | [5] 95 % of control

CCC1CCCCN1C (stereo unspecified)
inactive: dose: 25.0 mg/kg/injection, schedule: Q01DX005 (ip), vehicle: saline 103 % of control | dose: 25.0 mg/kg/injection, schedule: Q01DX009 (ip), vehicle: saline 105 % of control | [9] 98 % of control | [10] 110 % of control | [11] 95 % of control

CC1CCC2OC23C(=O)C2OC2C(C(C)(C)O)C13C (stereo unspecified)
inactive: dose: 100.0 mg/kg/injection, schedule: Q01DX001 (ip), vehicle: Klucel (hydroxypropylcellulose) (HPC) 104 % of control | dose: 200.0 mg/kg/injection, schedule: Q01DX001 (ip), vehicle: Klucel (hydroxypropylcellulose) (HPC) 101 % of control | dose: 400.0 mg/kg/injection, schedule: Q01DX001 (ip), vehicle: Klucel (hydroxypropylcellulose) (HPC) 100 % of control

CN(C)c1ccc(C=Nc2cccc(Cl)c2)cc1
inactive: [12] 108 % of control | [13] 98 % of control | [14] 103 % of control

COc1cccc2c1C(=O)c1c(O)c3c(c(O)c1C2=O)CC(O)(C(C)=O)CC3OC1CC(NC2=CC(=O)CC(C)(C)C2)C(O)C(C)O1 (stereo unspecified)
inactive: dose: 3.13 mg/kg/injection, schedule: Q04DX003 (ip), vehicle: distilled water + Tween-80 103 % of control | dose: 6.25 mg/kg/injection, schedule: Q04DX003 (ip), vehicle: distilled water + Tween-80 103 % of control | dose: 12.5 mg/kg/injection, schedule: Q04DX003 (ip), vehicle: distilled water + Tween-80 100 % of control | dose: 25.0 mg/kg/injection, schedule: Q04DX003 (ip), vehicle: distilled water + Tween-80 100 % of control | dose: 50.0 mg/kg/injection, schedule: Q04DX003 (ip), vehicle: distilled water + Tween-80 109 % of control

O=[N+]([O-])c1ccccc1NN=NCCCl
inactive: dose: 3.12 mg/kg/injection, schedule: Q01DX005 (ip), vehicle: Klucel (hydroxypropylcellulose) (HPC) 112 % of control | [15] 120 % of control | [16] 120 % of control

Cc1cc(=O)n(-c2ccccc2)c(=O)[nH]1
inactive: [10] 104 % of control | [17] 111 % of control | [18] 111 % of control

O=C1c2ccccc2C(=O)N1S(=O)(=O)C/C=C/CCl
inactive: [5] 94 % of control | [2] 97 % of control | [3] 105 % of control | [10] 110 % of control | [17] 103 % of control | [18] 108 % of control

O/N=C(/CN1CCOCC1)c1ccccc1
inactive: [12] 105 % of control | [13] 100 % of control | [14] 102 % of control

CN1CCN(CCCNN)CC1
inactive: [9] 93 % of control | [11] 101 % of control | dose: 200.0 mg/kg/injection, schedule: Q01DX005 (ip), vehicle: saline 101 % of control

CN(C(=O)NCCCl)C1=NC(O)(c2ccccc2)C(c2ccccc2)=N1 (stereo unspecified)
inactive: dose: 100.0 mg/kg/injection, schedule: Q04DX002 (ip), vehicle: saline with Tween-80 106 % of control | dose: 200.0 mg/kg/injection, schedule: Q04DX002 (ip), vehicle: saline with Tween-80 113 % of control | dose: 400.0 mg/kg/injection, schedule: Q04DX002 (ip), vehicle: saline with Tween-80 112 % of control

COc1ccc(/C=C2/N=C(c3ccccc3)OC2=O)cc1
inactive: [6] 93 % of control | [7] 93 % of control | [8] 87 % of control

CC(=O)Oc1cc2oc([O-])c[n+]2c2ccccc12
inactive: dose: 50.0 mg/kg/injection, schedule: Q01DX001 (ip), vehicle: saline with Tween-80 106 % of control | dose: 60.0 mg/kg/injection, schedule: Q01DX005 (ip), vehicle: Klucel + Tween-80 124 % of control | dose: 100.0 mg/kg/injection, schedule: Q01DX001 (ip), vehicle: saline with Tween-80 113 % of control and 124 % of control | dose: 200.0 mg/kg/injection, schedule: Q01DX001 (ip), vehicle: saline with Tween-80 106 % of control and 121 % of control

O=C1CSc2nc3ccc(Br)cc3c(=O)n21
inactive: [1] 100 % of control | [19] 95 % of control | dose: 200.0 mg/kg/injection, schedule: Q01DX005 (ip), vehicle: saline with Tween-80 111 % of control

O=C1CN(c2ccc(Cl)cc2)C(=O)CN1/N=C/c1ccc(O)c(O)c1
inactive: [1] 99 % of control | [19] 93 % of control

COc1ccc(-c2cn3c([nH]c(=O)c4cc(Br)ccc43)c2C#N)cc1
inactive: [6] 91 % of control | [7] 93 % of control | [8] 87 % of control

O=c1[nH]cc(CCCc2ccccc2)c(=O)[nH]1
inactive: dose: 60.0 mg/kg/injection, schedule: Q01DX005 (ip), vehicle: Klucel (hydroxypropylcellulose) (HPC) 102 % of control | dose: 120.0 mg/kg/injection, schedule: Q01DX005 (ip), vehicle: Klucel (hydroxypropylcellulose) (HPC) 95 % of control | dose: 240.0 mg/kg/injection, schedule: Q01DX005 (ip), vehicle: Klucel (hydroxypropylcellulose) (HPC) 95 % of control

CCOc1c(Br)cc(/C=C/[N+](=O)[O-])cc1OC
inactive: dose: 3.75 mg/kg/injection, schedule: Q01DX005 (ip), vehicle: saline with Tween-80 103 % of control | dose: 7.5 mg/kg/injection, schedule: Q01DX005 (ip), vehicle: saline with Tween-80 112 % of control and 116 % of control | dose: 15.0 mg/kg/injection, schedule: Q01DX005 (ip), vehicle: saline with Tween-80 109 % of control and 120 % of control | dose: 30.0 mg/kg/injection, schedule: Q01DX005 (ip), vehicle: saline with Tween-80 120 % of control

O=c1[nH]nc(/C=C/C=C/c2ccccc2)c(=O)[nH]1
inactive: dose: 100.0 mg/kg/injection, schedule: Q01DX001 (ip), vehicle: saline 97 % of control | dose: 200.0 mg/kg/injection, schedule: Q01DX001 (ip), vehicle: saline 101 % of control | dose: 400.0 mg/kg/injection, schedule: Q01DX001 (ip), vehicle: saline 90 % of control

O=C1C=CC(=O)C(Sc2cccc3ccccc23)=C1
inactive: [15] 96 % of control | dose: 12.5 mg/kg/injection, schedule: Q01DX005 (ip), vehicle: Klucel (hydroxypropylcellulose) (HPC) 102 % of control and 97 % of control | [16] 93 % of control | dose: 50.0 mg/kg/injection, schedule: Q01DX005 (ip), vehicle: Klucel (hydroxypropylcellulose) (HPC) 98 % of control and 107 % of control | dose: 100.0 mg/kg/injection, schedule: Q01DX005 (ip), vehicle: Klucel (hydroxypropylcellulose) (HPC) 107 % of control | dose: 200.0 mg/kg/injection, schedule: Q01DX005 (ip), vehicle: Klucel (hydroxypropylcellulose) (HPC) 104 % of control

C=CC(=NC(C)(C)C)Nc1ccc(Cl)cc1
inactive: [3] 100 % of control | [4] 94 % of control | dose: 200.0 mg/kg/injection, schedule: Q01DX009 (ip), vehicle: saline with Tween-80 97 % of control
